Measurements taken from US11780845B2 (Relay Therapeutics, Inc., priority 2019, dated 2023).

Tests used:
FGFR2 = FGFR2 (Homo sapiens (Human), UniProt P21802); assay: Biochemical FGFR2 Caliper assay
SNU-16 = assay: Cell SNU-16 assay; assay type: cell-based
[1] = Homo sapiens, SNU-16, SNU-16 cells

Chain of FGFR2 (P21802 22-821): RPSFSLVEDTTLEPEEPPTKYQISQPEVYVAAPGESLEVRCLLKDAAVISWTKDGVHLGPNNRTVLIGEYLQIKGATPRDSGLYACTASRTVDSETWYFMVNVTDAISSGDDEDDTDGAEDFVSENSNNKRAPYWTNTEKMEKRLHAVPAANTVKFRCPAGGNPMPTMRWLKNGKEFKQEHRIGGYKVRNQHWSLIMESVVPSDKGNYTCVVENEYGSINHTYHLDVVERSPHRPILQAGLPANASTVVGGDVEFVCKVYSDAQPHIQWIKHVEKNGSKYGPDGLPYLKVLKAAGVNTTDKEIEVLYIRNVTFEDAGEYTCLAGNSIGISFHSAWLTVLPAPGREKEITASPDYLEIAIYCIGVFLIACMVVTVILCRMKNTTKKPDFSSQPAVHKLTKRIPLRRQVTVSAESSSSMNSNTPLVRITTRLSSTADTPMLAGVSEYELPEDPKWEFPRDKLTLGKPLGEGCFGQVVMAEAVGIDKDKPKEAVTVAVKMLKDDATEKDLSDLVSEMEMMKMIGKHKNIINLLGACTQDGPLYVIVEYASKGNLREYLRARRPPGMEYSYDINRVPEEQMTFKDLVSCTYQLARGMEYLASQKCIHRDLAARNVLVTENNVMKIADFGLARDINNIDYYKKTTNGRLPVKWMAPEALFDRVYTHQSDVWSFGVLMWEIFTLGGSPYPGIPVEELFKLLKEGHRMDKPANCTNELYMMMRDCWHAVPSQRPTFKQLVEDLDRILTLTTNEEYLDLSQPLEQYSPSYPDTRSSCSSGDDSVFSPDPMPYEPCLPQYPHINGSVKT

SMILES | IC50 (FGFR2) [nM] | IC50 (SNU-16; [1]) [nM] | IC50 (SNU-16; SNU-16 cells) [nM]
C=Cc1ccc(-c2c(-c3ccc4nn[nH]c4c3)c3c(N)ncnc3n2C)cn1 [Example 1352] | < 100 | ≤ 100 | 
C#Cc1ncc(-c2c(-c3ccc(Oc4nccc(C)n4)c(F)c3)c3c(N)ncnc3n2C)c(C)c1OC [Example 1353] | < 100 | ≤ 100 | 
C#Cc1cc(OC)c(-c2c(C3=CC[C@@H](C(=O)N4CCC[C@H]4C)CC3)c3c(N)ncnc3n2C)cn1 [Example 1354] | < 100 | ≤ 100 | 
C#Cc1cc(OC)c(-c2c(C3=CC[C@H](C(=O)N4CCC[C@H]4C)CC3)c3c(N)ncnc3n2C)cn1 [Example 1355] | < 100 | ≤ 100 | 
C#Cc1cc(C)c(-c2c(-c3ccc(Oc4nccc(C)n4)c(F)c3)c3c(Cl)ncnc3n2C)cn1 [Example 1356] | < 100 | ≤ 100 | 
C#Cc1cnc(-c2c(-c3ccc(Oc4nccc(C)n4)c(F)c3)c3c(N)ncnc3n2C)c(C)n1 [Example 1358] | < 100 | ≤ 100 | 
C#Cc1nc2cc(-c3c(-c4ccc(Oc5nccc(C)n5)c(F)c4)c4c(N)ncnc4n3C)ccc2n1C [Example 1359] | < 100 | ≤ 100 | 
C#Cc1cnc2cc(-c3c(-c4ccc(Oc5nccc(C)n5)c(F)c4)c4c(N)ncnc4n3C)ccc2n1 [Example 1363] | < 100 | ≤ 100 | 
C#Cc1nc2cc(-c3c(-c4ccc(Oc5nccc(C)n5)c(F)c4)c4c(C)ncnc4n3C)ccc2[nH]1 [Example 1364] | < 100 | ≤ 100 | 
C#Cc1ncc(-c2c(-c3ccc(Oc4nccc(C)n4)c(F)c3)c3c(N)ncnc3n2C)c(C)c1C [Example 1365] | < 100 | ≤ 100 | 
C#Cc1cc(C)c(-c2c(-c3ccc(Oc4nc(C)cc(C)n4)c(F)c3)c3c(N)ncnc3n2C)cn1 [Example 1368] | < 100 | ≤ 100 | 
C#Cc1nc2cc(-c3c(C4=CC[C@@H](C(=O)N5CCCC5)CC4)c4c(N)ncnc4n3C)ccc2n1C [Example 1369] | < 100 | ≤ 100 | 
C=CC(=O)NC1CC=C(c2c(-c3ccc(Oc4nccc(C)n4)c(F)c3)c3c(N)ncnc3n2C)CC1 (stereo not drawn) [Example 1370] | 100 to 250 | 100 to 250 | 
C=C(C)C(=O)Nc1ccc(-c2c(-c3ccc(-c4ccccc4O)nc3)c3c(N)ncnc3n2C)cc1 [Example 1371] | 1000 to 100000 | 250 to 1000 | 
C=C(C)C(=O)Nc1ccc(-c2c(-c3ccc(-c4cccc(O)c4)nc3)c3c(N)ncnc3n2C)cc1 [Example 1372] | 1000 to 100000 | 1000 to 100000 | 
C=C(C)C(=O)Nc1ccc(-c2c(-c3ccc(-c4noc(C5CC5)n4)c(O)c3)c3c(N)ncnc3n2C)cc1 [Example 1373] | < 100 | 100 to 250 | 
COCC#Cc1cc(C)c(-c2c(-c3ccc(Oc4nccc(C)n4)c(F)c3)c3c(C)ncnc3n2C)cn1 [Example 1374] | 250 to 1000 | 100 to 250 | 
C#Cc1cc(F)c(-c2c(-c3ccc(Oc4nccc(C)n4)c(F)c3)c3c(C)ncnc3n2C)cn1 [Example 1375] | < 100 | ≤ 100 | 
C=CC(=O)N[C@@H]1CC=C(c2c(-c3ccc(Oc4nccc(C)n4)c(F)c3)c3c(N)ncnc3n2C)CC1 [Example 1376] | 250 to 1000 | 100 to 250 | 
C=CC(=O)N[C@H]1CC=C(c2c(-c3ccc(Oc4nccc(C)n4)c(F)c3)c3c(N)ncnc3n2C)CC1 [Example 1377] | 250 to 1000 | 250 to 1000 | 

SMILES | IC50 (FGFR2) [nM] | IC50 (SNU-16; [1]) [nM] | IC50 (SNU-16; SNU-16 cells) [nM]
COC/C=C/c1cc(C)c(-c2c(-c3ccc(Oc4nccc(C)n4)c(F)c3)c3c(N)ncnc3n2C)cn1 [Example 1378] | 1000 to 100000 | 1000 to 100000 | 
C#Cc1ncc2ccc(-c3c(-c4ccc(Oc5nccc(C)n5)c(F)c4)c4c(N)ncnc4n3C)cc2n1 [Example 1379] | 100 to 250 | ≤ 100 | 
C#Cc1cc(C)c(-c2cn3ncnc(N)c3c2C2=CC[C@@H](C(=O)N3CCC[C@H]3C)CC2)cn1 [Example 1380] | 250 to 1000 | 250 to 1000 | 
C#Cc1ncc(-c2c(-c3ccc(Oc4nccc(C)n4)c(F)c3)c3c(C)ncnc3n2C)cc1OC [Example 1381] | 100 to 250 | ≤ 100 | 
COCC#Cc1cc(C)c(-c2c(C3=CC[C@H](C(=O)N4CCC[C@H]4C)CC3)c3c(N)ncnc3n2C)cn1 [Example 1382] | < 100 | ≤ 100 | 
COCC#Cc1cc(C)c(-c2c(C3=CC[C@@H](C(=O)N4CCC[C@H]4C)CC3)c3c(N)ncnc3n2C)cn1 [Example 1383] | 250 to 1000 | 250 to 1000 | 
C#Cc1cnc2ccc(-c3c(-c4ccc(Oc5nccc(C)n5)c(F)c4)c4c(N)ncnc4n3C)cc2n1 [Example 1384] | < 100 | 100 to 250 | 
C#Cc1ncc2cc(-c3c(-c4ccc(Oc5nccc(C)n5)c(F)c4)c4c(N)ncnc4n3C)ccc2n1 [Example 1385] | < 100 | ≤ 100 | 
COCC#Cc1cc(C)c(-c2c(-c3ccc(Oc4nccc(C)n4)cc3)c3c(N)ncnc3n2C)cn1 [Example 1386] | < 100 | ≤ 100 | 
C#Cc1cc(C)c(-c2cn3ncnc(N)c3c2C2=CC[C@H](C(=O)N3CCC[C@H]3C)CC2)cn1 [Example 1387] | 1000 to 100000 | 1000 to 100000 | 
C#Cc1nc2cc(-c3c(-c4ccc(Oc5nccc(C)n5)c(F)c4)c4c(N)ncnc4n3C)c(F)cc2n1C [Example 1388] | < 100 | ≤ 100 | 
C=C(C)C(=O)Nc1ccc(-c2c(-c3ccc(-c4cccc(O)c4)c(C#N)c3)c3c(N)ncnc3n2C)cc1 [Example 1389] | 1000 to 100000 | 250 to 1000 | 
C=C(C)C(=O)Nc1ccc(-c2c(-c3ccc4[nH]ncc4c3)c3c(N)ncnc3n2C)cc1 [Example 1390] | 1000 to 100000 | 1000 to 100000 | 
C#Cc1cc2c(cn1)-c1c(-c3ccc(Oc4nccc(C)n4)cc3)c3c(N)ncnc3n1CCC2 [Example 1391] | < 100 | ≤ 100 | 
C#Cc1cc(C)c(-c2c(C3=CC[C@@]4(CC3)Cc3ccc(C)nc3O4)c3c(C)ncnc3n2C)cn1 [Example 1392] | 1000 to 100000 | 1000 to 100000 | 
C#Cc1cc(C)c(-c2c(C3=CC[C@@]4(CC3)Cc3ccc(C)nc3O4)c3c(N)ncnc3n2C)cn1 [Example 1393] | 1000 to 100000 | 1000 to 100000 | 
C#Cc1cc(C)c(-c2c(C3=CC[C@@]4(CC3)Cc3ccc(C)nc3C4=O)c3c(N)ncnc3n2C)cn1 [Example 1394] | 100 to 250 | 100 to 250 | 
C#Cc1nc2ccc(-c3c(-c4ccc(Oc5nccc(C)n5)c(F)c4)c4c(N)ncnc4n3C)cc2n1C [Example 1395] | < 100 | ≤ 100 | 
C#Cc1cc(C)c(-c2c(C3=CC[C@]4(CC3)Cc3ccc(C)nc3O4)c3c(C)ncnc3n2C)cn1 [Example 1396] | 250 to 1000 | 1000 to 100000 | 
C#Cc1ncc(-c2c(-c3ccc(Oc4nccc(C)n4)c(F)c3)c3c(C)ncnc3n2C)c(C)c1OC [Example 1397] | 250 to 1000 | ≤ 100 | 

SMILES | IC50 (FGFR2) [nM] | IC50 (SNU-16; [1]) [nM] | IC50 (SNU-16; SNU-16 cells) [nM]
C#Cc1cc(C)c(-c2c(C3=CC[C@]4(CC3)Cc3ccc(C)nc3C4=O)c3c(N)ncnc3n2C)cn1 [Example 1398] | < 100 | ≤ 100 | 
C#Cc1cc(C)c(-c2c(C3=CC[C@]4(CC3)Cc3ccc(C)nc3O4)c3c(N)ncnc3n2C)cn1 [Example 1399] | < 100 | 100 to 250 | 
C#Cc1cc(C)c(-c2c(-c3ccc(Oc4nccc(C)n4)c(F)c3)c3c(C)ncnc3n2C)c(F)n1 [Example 1400] | < 100 | ≤ 100 | 
C#Cc1cc(C)c(-c2c(-c3ccc(Oc4nccc(C)n4)c(F)c3)c3c(Cl)ncnc3n2C)c(F)n1 [Example 1401] | < 100 | ≤ 100 | 
C#Cc1cc2cc(-c3c(-c4ccc(Oc5nccc(C)n5)c(F)c4)c4c(N)ncnc4n3C)ccc2cn1 [Example 1402] | 1000 to 100000 | 1000 to 100000 | 
C#Cc1cc(OC)c(-c2c(-c3ccc(Oc4nccc(C)n4)c(F)c3)c3c(Cl)ncnc3n2C)cn1 [Example 1403] | < 100 | ≤ 100 | 
C#Cc1cc2ccc(-c3c(-c4ccc(Oc5nccc(C)n5)c(F)c4)c4c(N)ncnc4n3C)cc2cn1 [Example 1404] | 250 to 1000 | 250 to 1000 | 
C#Cc1ccc2cc(-c3c(-c4ccc(Oc5nccc(C)n5)c(F)c4)c4c(N)ncnc4n3C)ccc2n1 [Example 1405] | < 100 | ≤ 100 | 
C#Cc1cc(C)c(-c2c(-c3ccc(Oc4nccc(C)n4)c(F)c3)c3c(C)ncnc3n2C)c(C)n1 [Example 1406] | < 100 | ≤ 100 | 
C=C(C)c1ccc(-c2c(-c3ccc4nn[nH]c4c3)c3c(N)ncnc3n2C)cn1 [Example 1407] | 250 to 1000 | 250 to 1000 | 
C#Cc1cnc2cc(-c3c(-c4ccc(Oc5nccc(C)n5)c(F)c4)c4c(C)ncnc4n3C)ccc2n1 [Example 1408] | < 100 | 100 to 250 | 
C#Cc1ncc2cc(-c3c(-c4ccc(Oc5nccc(C)n5)c(F)c4)c4c(N)ncnc4n3C)n(C)c2n1 [Example 1411] | < 100 | ≤ 100 | 
C#Cc1ccc2ccc(-c3c(-c4ccc(Oc5nccc(C)n5)c(F)c4)c4c(N)ncnc4n3C)cc2n1 [Example 1412] | 250 to 1000 | 250 to 1000 | 
C#Cc1cnc2c(cc(-c3c(-c4ccc(Oc5nccc(C)n5)c(F)c4)c4c(N)ncnc4n3C)n2C)n1 [Example 1413] | < 100 | ≤ 100 | 
C#Cc1cc(C)c(-c2c(-c3ccc(Oc4nccc(C)n4)c(F)c3)c3c(Cl)ncnc3n2C)c(F)n1 [Example 1416] | < 100 |  | 100 to 250
C#Cc1cc(C)c(-c2c(-c3ccc(Oc4nccc(C)n4)c(F)c3)c3c(Cl)ncnc3n2C)c(F)n1 [Example 1417] | < 100 |  | ≤ 100
C#Cc1cc(OC)c(-c2c(-c3ccc(Oc4nccc(C)n4)c(F)c3)c3c(C)ncnc3n2C)cn1 [Example 1418] | < 100 | ≤ 100 | 
C=C(C)C(=O)Nc1ccc(-c2c(-c3cnc(-c4ccc(OC)cc4)s3)c3c(N)ncnc3n2C)cc1 [Example 1419] | < 100 | ≤ 100 | 
C=C(C)C(=O)Nc1ccc(-c2c(-c3cnc(-c4cccc(OC)c4)s3)c3c(N)ncnc3n2C)cc1 [Example 1420] | 250 to 1000 | 250 to 1000 | 
C=C(C)C(=O)Nc1ccc(-c2c(-c3cnc(-c4cccc(F)c4)s3)c3c(N)ncnc3n2C)cc1 [Example 1421] | 250 to 1000 | 250 to 1000 | 
